# Measured values from the supplement of paper PMC10307832.
# Columns and labels:
# Experiment in all cases: relative viability (nuclei count vs DMSO), 5 days (fraction); higher = more cells survive
# Daporinad + Phenformin = compound: O=C(/C=C/c1cccnc1)NCCCCC1CCN(C(=O)c2ccccc2)CC1 [Daporinad] + N=C(N)NC(=N)NCCc1ccccc1 [Phenformin] (partner 250 µM)
# Outline: (§1)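 Values are medians from duplicate plates. Each reflects relative viability, defined as the nuclei count of treated wells over that of vehicle wells. Lung cancer cell lines in 1536-well plates were pin-tool dosed one day after seeding with one drug alone or with a fixed anchor-drug dose plus five library-drug doses (not always all listed) in √10 steps, then fixed, stained and imaged at 4× after 5 days.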
# R406 + Pictilisib = compound: COc1cc(Nc2ncc(F)c(Nc3ccc4c(n3)NC(=O)C(C)(C)O4)n2)cc(OC)c1OC [R406] + CS(=O)(=O)N1CCN(Cc2cc3nc(-c4cccc5[nH]ncc45)nc(N4CCOCC4)c3s2)CC1 [Pictilisib] (partner 1 µM)
# Outline: as §1
# R406 + Trametinib = compound: COc1cc(Nc2ncc(F)c(Nc3ccc4c(n3)NC(=O)C(C)(C)O4)n2)cc(OC)c1OC [R406] + CC(=O)Nc1cccc(-n2c(=O)n(C3CC3)c(=O)c3c(Nc4ccc(I)cc4F)n(C)c(=O)c(C)c32)c1 [Trametinib] (partner 0.02 µM)
# Outline: as §1
# R406 + AZD7762 = compound: COc1cc(Nc2ncc(F)c(Nc3ccc4c(n3)NC(=O)C(C)(C)O4)n2)cc(OC)c1OC [R406] + NC(=O)Nc1cc(-c2cccc(F)c2)sc1C(=O)N[C@H]1CCCNC1 [AZD7762] (partner 0.2 µM)
# Outline: as §1
Cell Line,relative viability (Daporinad + Phenformin; first compound 0.0005 µM),relative viability (Daporinad + Phenformin; first compound 0.001581 µM),relative viability (Daporinad + Phenformin; first compound 0.005 µM),relative viability (Daporinad + Phenformin; first compound 0.01581 µM),relative viability (R406 + Pictilisib; first compound 0.08 µM),relative viability (R406 + Pictilisib; first compound 0.253 µM),relative viability (R406 + Pictilisib; first compound 0.8 µM),relative viability (R406 + Pictilisib; first compound 2.53 µM),relative viability (R406 + Pictilisib; first compound 8 µM),relative viability (R406 + Trametinib; first compound 0.08 µM),relative viability (R406 + Trametinib; first compound 0.253 µM),relative viability (R406 + Trametinib; first compound 0.8 µM),relative viability (R406 + Trametinib; first compound 2.53 µM),relative viability (R406 + Trametinib; first compound 8 µM),relative viability (R406 + AZD7762; first compound 0.08 µM),relative viability (R406 + AZD7762; first compound 0.253 µM),relative viability (R406 + AZD7762; first compound 0.8 µM),relative viability (R406 + AZD7762; first compound 2.53 µM),relative viability (R406 + AZD7762; first compound 8 µM)
NCI-H2228,0.352,0.301,0.311,0.417,0.587,0.222,0.532,0.169,0.187,0.501,0.503,0.731,0.0769,0.432,–,–,–,–,–
HOP-62,0.493,0.746,0.765,0.526,0.643,0.846,0.863,0.467,0.488,0.379,0.388,0.427,0.37,0.339,0.76,0.813,0.793,0.531,0.585
HARA,0.412,0.397,0.426,0.114,0.416,0.349,0.405,0.248,0.187,0.745,0.629,0.878,0.794,0.13,0.272,0.469,0.257,0.306,0.305
PC-14,0.357,0.633,0.488,0.4,0.669,0.835,0.703,0.319,0.381,0.777,0.898,0.857,0.628,0.11,0.296,0.435,0.418,0.403,0.281
NCI-H1755,0.648,0.628,0.639,0.667,0.469,0.415,0.496,0.221,0.195,0.679,0.788,0.714,0.704,0.465,0.382,0.493,0.369,0.335,0.253
